Values joined by “and” are separate entries in the source; they are usually repeats but may differ in a detail not shown here. Identical values can stand only once.
Tests used:
iAMs = assay: WST-1 cell viability assay in H2O2-treated iAMs; assay type: cell-based, rat; design: In vitro cell viability assay with WST-1: unit not given here
Experimental: Following the transfer of 150 µL of culture medium for the ToxiLight assay, 7 µL of WST-1 reagent (Merck, 5015944001) was added directly to the remaining cell culture medium in each well. The cells were incubated at 37 °C for an additional 4 h. After incubation, the absorbance of the samples was measured at 450 nm (690 nm was used as reference wavelength and subtracted) using a microplate reader (Epoch). […]

[1] = system: mouse model of AngII-induced myocardial fibrosis; assay: AngII-induced myocardial fibrosis mouse model, 1 week, heart mRNA by RT-qPCR; assay type: in vivo
Experimental: Four weeks after implantation, cardiac ultrasound was performed, mice were euthanized, and hearts were collected. A similar set-up was used for the 1-week study (Alzet, model 1007D) in male mice (n = 9-10 mice in every group).
RNA was extracted using Nucleospin RNA XS (Macherey-Nagel, 740902.50) according to the manufacturer’s instructions. For cDNA synthesis, total RNA was added to a mixture containing buffer with random hexamers and reverse transcriptase enzyme (TaqMan reverse transcription reagents, Applied biosystems, N8080234) after which samples were incubated for 10 min at 25 °C, 30 min at 48 °C, and 5 min at 95 °C. RT-qPCR was performed on QuantStudio 3 Real-time PCR system (Applied Biosystems) using Taqman Universal PCR Master Mix (Applied Biosystems, 4304437) and Taqman primers according to the manufacturer’s instructions. Settings were as follows: […] followed by 10 min at 95 °C, 40 cycles (45 cycles for ERBB4) of denaturation at 95 °C for 15 s, and 1 min at 60 °C. All reactions were run in duplicate, and all data were normalized against housekeeping genes glyceraldehyde-3-phosphate dehydrogenase (GAPDH), beta-actin (ACTB), or phosphoglycerate kinase 1 (PGK1). Expression levels were calculated using the comparative cycle method and expressed as fold change (FC) to appropriate controls. The following TaqMan primers were used (Thermo Fisher Scientific): GAPDH (Hs02758991_g1, Mm99999915_g1 and Rn01775763_g1), PGK1 (Hs99999906_m1), ID2 (Hs04187239_m1), BMPR1B (Hs01010965_m1), CACNA2D4 (Hs00297782_m1), DUSP2 (Hs00358879_m1), NR4A1 (Hs00374226_m1), SGK1 (Hs00178612_m1), COL1A1 (Mm00801666_g1), COL3A1 (Hs00943809_m1 and Mm00802305_g1), ERBB4 (Hs00955525_m1 and Rn00572447_m1), ACTB (Mm02619580_g1) and ANP (Mm01255747_g1).

ERBB2/ERBB3 = target: T1, ERBB2/ERBB3 (Homo sapiens, UniProt P21860); assay: PathHunter U2OS ERBB2/ERBB3 dimerization assay; assay type: cell-based; conditions: for ERBB3/ERBB2 dimerization signal: relative to signal with 0.1 µM NRG1, single biological replicates
T1 construct: host or cells: U2OS (osteosarcoma cells), PathHunter engineered line
T1 sequence (P21860 20-1342): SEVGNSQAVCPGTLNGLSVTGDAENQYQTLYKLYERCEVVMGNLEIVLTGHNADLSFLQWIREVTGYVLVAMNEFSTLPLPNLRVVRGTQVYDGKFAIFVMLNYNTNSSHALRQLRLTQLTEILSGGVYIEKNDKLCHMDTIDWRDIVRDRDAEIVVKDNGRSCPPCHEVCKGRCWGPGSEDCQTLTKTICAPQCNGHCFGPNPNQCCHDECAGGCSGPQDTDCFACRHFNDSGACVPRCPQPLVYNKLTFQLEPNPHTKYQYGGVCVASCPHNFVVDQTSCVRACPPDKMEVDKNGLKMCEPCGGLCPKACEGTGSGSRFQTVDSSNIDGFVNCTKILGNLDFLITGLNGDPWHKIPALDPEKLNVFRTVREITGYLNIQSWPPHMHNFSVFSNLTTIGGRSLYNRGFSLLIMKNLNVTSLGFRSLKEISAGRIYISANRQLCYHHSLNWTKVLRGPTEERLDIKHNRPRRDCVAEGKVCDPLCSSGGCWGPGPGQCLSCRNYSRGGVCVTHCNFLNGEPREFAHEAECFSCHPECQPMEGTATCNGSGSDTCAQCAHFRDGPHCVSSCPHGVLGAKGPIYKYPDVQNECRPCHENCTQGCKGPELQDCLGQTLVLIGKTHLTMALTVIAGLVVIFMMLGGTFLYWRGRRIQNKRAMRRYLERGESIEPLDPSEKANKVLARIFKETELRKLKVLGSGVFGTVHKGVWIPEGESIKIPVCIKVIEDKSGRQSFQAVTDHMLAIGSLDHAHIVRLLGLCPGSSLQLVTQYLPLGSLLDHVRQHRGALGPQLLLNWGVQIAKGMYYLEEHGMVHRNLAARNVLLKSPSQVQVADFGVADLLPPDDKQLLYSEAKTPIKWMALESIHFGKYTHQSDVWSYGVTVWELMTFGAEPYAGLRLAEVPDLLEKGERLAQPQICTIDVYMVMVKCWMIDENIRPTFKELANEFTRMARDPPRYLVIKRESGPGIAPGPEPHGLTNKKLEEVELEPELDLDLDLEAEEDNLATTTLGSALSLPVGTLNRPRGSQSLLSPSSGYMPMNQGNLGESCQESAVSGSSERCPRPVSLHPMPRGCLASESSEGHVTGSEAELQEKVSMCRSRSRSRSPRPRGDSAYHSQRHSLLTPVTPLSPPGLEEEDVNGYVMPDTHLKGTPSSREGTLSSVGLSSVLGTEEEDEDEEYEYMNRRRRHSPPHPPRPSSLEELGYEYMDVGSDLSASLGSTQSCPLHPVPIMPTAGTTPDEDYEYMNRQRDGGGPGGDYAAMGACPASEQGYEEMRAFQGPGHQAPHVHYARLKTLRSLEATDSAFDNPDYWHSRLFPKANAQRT
T1 sequence (P04626 23-1255, further chain): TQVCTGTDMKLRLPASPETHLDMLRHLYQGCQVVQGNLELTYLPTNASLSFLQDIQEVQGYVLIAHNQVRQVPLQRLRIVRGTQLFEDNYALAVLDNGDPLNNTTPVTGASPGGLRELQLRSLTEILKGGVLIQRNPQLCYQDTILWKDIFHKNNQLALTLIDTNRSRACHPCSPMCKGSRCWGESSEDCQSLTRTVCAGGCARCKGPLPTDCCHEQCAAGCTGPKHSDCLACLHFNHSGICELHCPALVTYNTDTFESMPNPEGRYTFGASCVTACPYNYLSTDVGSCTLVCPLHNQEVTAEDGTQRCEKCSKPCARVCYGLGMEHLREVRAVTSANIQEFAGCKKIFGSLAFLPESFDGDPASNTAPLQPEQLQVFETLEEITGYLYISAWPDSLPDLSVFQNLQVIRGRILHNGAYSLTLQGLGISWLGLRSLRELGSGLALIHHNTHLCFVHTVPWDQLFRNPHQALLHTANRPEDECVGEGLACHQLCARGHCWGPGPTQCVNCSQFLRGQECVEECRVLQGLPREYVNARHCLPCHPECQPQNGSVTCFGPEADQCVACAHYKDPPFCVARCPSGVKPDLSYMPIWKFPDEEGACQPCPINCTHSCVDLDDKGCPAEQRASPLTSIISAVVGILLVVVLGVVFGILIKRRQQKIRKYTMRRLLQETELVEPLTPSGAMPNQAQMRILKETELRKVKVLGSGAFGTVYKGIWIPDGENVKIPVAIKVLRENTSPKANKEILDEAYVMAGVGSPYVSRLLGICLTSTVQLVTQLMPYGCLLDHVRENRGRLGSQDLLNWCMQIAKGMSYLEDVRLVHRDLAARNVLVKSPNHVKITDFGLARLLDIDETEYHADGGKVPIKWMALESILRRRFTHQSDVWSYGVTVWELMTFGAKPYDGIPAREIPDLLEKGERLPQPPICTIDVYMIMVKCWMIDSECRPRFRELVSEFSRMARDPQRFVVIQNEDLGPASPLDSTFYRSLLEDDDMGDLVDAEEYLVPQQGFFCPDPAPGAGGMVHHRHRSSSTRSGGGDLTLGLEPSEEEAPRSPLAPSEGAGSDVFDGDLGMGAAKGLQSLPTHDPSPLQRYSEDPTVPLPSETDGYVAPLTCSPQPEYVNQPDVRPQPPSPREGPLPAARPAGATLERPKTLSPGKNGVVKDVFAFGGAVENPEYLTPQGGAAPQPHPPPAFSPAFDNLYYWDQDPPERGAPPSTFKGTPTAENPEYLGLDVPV
Experimental: PathHunter U2OS ERBB4/ERBB4 (osteosarcoma cells; Eurofins, 93-0961C3), U2OS ERBB2/ERBB4 (osteosarcoma cells; Eurofins, 493-0960C3), ERBB2/ERBB3 (osteosarcoma cells; Eurofins, 93-1042C3) and ERBB1/ERBB1 (osteosarcoma cells; Eurofins, 93-0989C3) dimerization cell lines were cultured according to the manufacturer’s instructions. Briefly, cells were cultured in Cell Culture Reagent 103 (Eurofins, 92-3103 G) supplemented with 250 µg/mL Hygromycin B (Eurofins, 92-0029) and 500 µg/mL G418 (Eurofins, 92-0030), and were maintained at 37 °C in humidified atmosphere of 5% CO2. HCFs (Innoprot, P10454) were cultured in fibroblast medium (Innoprot, P60108) supplemented with 10% (v/v) fetal bovine serum (FBS, Innoprot), 10% (v/v) fibroblast growth supplement (Innoprot), and 1% (v/v) penicillin/streptomycin solution (Innoprot). iAMs[33] (kindly provided by LUMC) were cultured in Advanced DMEM F-12 (Thermo Fisher Scientific, 12634028) supplemented with 2% (v/v) heat-inactivated FBS (Thermo Fisher Scientific, 10270106), 1% (v/v) penicillin/streptomycin (10,000 units/mL and 10 mg/mL respectively, Thermo Fisher Scientific, 15140122), 1× GlutaMAX (Thermo Fisher Scientific, 35050061), and 100 ng/mL doxycycline (Tocris, 4090) for proliferation. To induce differentiation, iAMs were transferred to medium without doxycycline.
U2OS ERBB4/ERBB4 dimerization cells were seeded at a density of 5 × 10^4 cells/well in 100 µL Cell Plating 0 Reagent, in white 96-well plates (PerkinElmer, 6005680) and incubated for 24 h at 37 °C, 5% CO2. […] Next, 110 µL PathHunter Flash Detection Reagent was added to each well and incubated at RT for 1 h after which the luminescence signal was measured using the Luminoskan Ascent (Thermo Fisher Scientific). […] The same experimental set-up was used for the U2OS ERBB2/ERBB4, U2OS ERBB2/ERBB3 and U2OS ERBB1/ERBB1 dimerization cell lines.

[2] = AngII/EF-1, male wild type mice, EF-1 2 mg/kg/day, single animals, 2 mg/kg/day

`O=C(NC1CC1)C(Sc1nc2ccccc2c(=O)n1C1CCCC1)c1ccccc1` (centres unmarked) [EF-1] was tested, and the “cell viability, WST-1 absorbance (in words)” value (iAMs; 100 µM H2O2, pre-treatment with EF-1) was “significantly increased cell viability”, the “In vitro cell viability assay with WST-1” value (iAMs; H2O2/EF-1, individual replicates) was 1.268 and 0.9224 and 0.7959 and 0.7633 and 0.6939 and 1.2898 and 0.9164 and 0.8058 and 0.7767 and 0.7185 and 1.306 and 0.9585 and 0.8456 and 0.8168 and 0.7703 and 1.242 and 0.9643 and 0.8304 and 0.8393 and 0.7321 and the “Col1a1 mRNA in heart, normalized FC compared to Ctrl” value [1, 2] was 0.89 and 1.45 and 5.23 and 1.1 and 0.7 and 1.4 and 1.83 and 0.45. For the same compound, the “Col3a1 mRNA in heart, normalized FC compared to Ctrl” value [1, 2] was 0.3868 and 1.25 and 2.15 and 0.45 and 0.1877 and 2.4002 and 0.7979 and 0.9965, the “Nppa mRNA in heart, normalized FC compared to Ctrl” value [1, 2] was 0.84 and 6.51 and 3.53 and 3.93 and 1.08 and 3.77 and 5.6 and 2.74 and 3.12 and the “effect on AngII-induced Col1a1 and Col3a1 mRNA expression (in words)” value ([1]; male wild type mice) was “significantly reduced”. For the same compound, the “effect on atrial natriuretic peptide (Nppa) expression (in words)” value ([1]; male wild type mice) was “significantly decreased”, the EC50 (ERBB2/ERBB3) was greater than 32 µM and the “stimulatory effect on ERBB2/ERBB3 heterodimerization (in words)” value (ERBB2/ERBB3) was “lower compared to ERBB4 homodimerization”. The ERBB3/ERBB2 dimerization signal (ERBB2/ERBB3; 3.125e-8 M) was 0, the ERBB3/ERBB2 dimerization signal (ERBB2/ERBB3; 6.25e-8 M) was 4.35 and 0.16 and -2.68 and -0.63 and -0.56 and the ERBB3/ERBB2 dimerization signal (ERBB2/ERBB3; 1.25e-7 M) was 2.37 and 0.16 and -2.68 and -1.68 and -1.97. The ERBB3/ERBB2 dimerization signal (ERBB2/ERBB3; 2.5e-7 M) was 0.62 and 4.11 and 0.43 and -3.27 and -3.43, the ERBB3/ERBB2 dimerization signal (ERBB2/ERBB3; 5e-7 M) was 0.97 and 1.82 and 6.28 and 0.82 and -2.96 and -1.11 and the ERBB3/ERBB2 dimerization signal (ERBB2/ERBB3; 1e-6 M) was 0.96 and 9.29 and 2.03 and -1.53 and -0.18. For the same compound, the ERBB3/ERBB2 dimerization signal (ERBB2/ERBB3; 2e-6 M) was 1.34 and 1.02 and 9.84 and 3.13 and 0.57 and 2.12, the ERBB3/ERBB2 dimerization signal (ERBB2/ERBB3; 4e-6 M) was 3.1 and 10.27 and 4.36 and 4.61 and 5.16 and the ERBB3/ERBB2 dimerization signal (ERBB2/ERBB3; 8e-6 M) was 4.89 and 3.3 and 12.92 and 4.35 and 9.79 and 9.65. The ERBB3/ERBB2 dimerization signal (ERBB2/ERBB3; 1.6e-5 M) was 11.23 and 14.98 and 10.81 and 10.98 and 13.88 and the ERBB3/ERBB2 dimerization signal (ERBB2/ERBB3; 3.2e-5 M) was 23.82 and 14.98 and 24 and 17.43 and 15.59 and 14.95.

From PMC11724075, “Small-molecule-induced ERBB4 activation to treat heart failure” (Nature Communications, 2025)
